Experimental data taken from patent US9689040B2, “Selective inhibitors of tumor-initiating cells” (Children's Medical Center Corporation, priority 2011, dated 2017).
Entries after “also recorded” stand apart in the source; their conditions may differ.

Columns and labels:
Noxa, PARP1 = experiment: Immunoblot of Noxa induction and PARP cleavage in breast cell lines; type: cell-based, human; conditions: for Noxa protein induction: 12.5 nM, 24 hours
Procedure: (§1) Immunoblot was performed as described^41. Primary antibodies were as follows: cleaved Caspase 3 (Cell Signaling, rabbit polyclonal, 1:1000), PARP1 (Santa Cruz, rabbit polyclonal, 1:500), MCL1 (Cell Signaling, Rabbit polyclonal, 1:1000), Bim (Santa Cruz, rabbit polyclonal, 1:500), Bik (Cell Signaling, rabbit polyclonal, 1:1000), Puma (Cell Signaling, rabbit polyclonal, 1:1000), Noxa (Calbiochem, mouse monoclonal, 1:500), Bid (Santa Cruz, rabbit polyclonal, 1:500), Bad (Santa Cruz, rabbit polyclonal, 1:500). Antibodies were diluted in 5% milk in TBS-T and incubated O.N. at 4° C. Secondary mouse and rabbit HRP-conjugated antibodies were from Amersham. Protein signal was detected using the ECL Plus kit (Amersham). For flow cytometry, cells were stained as previously described^33, using the following fluorescent-conjugated antibodies: CD44 (BD Biosciences), CD24 (BD Biosciences), CD326 (ESA, Biolegend), Annexin V (Invitrogen). For immunofluorescence microscopy, cells were fixed in 2% PFA for 10 min, permeabilized with 1% Triton X in PBS for 5 min, and incubated with primary antibodies in 0.5% Triton X, 1% FBS in PBS for 30 min at RT. Antibodies were: CK18 (Santa Cruz, mouse monoclonal, 1:100) and CK14 (Millipore, mouse monoclonal, 1:100). After washing the cells were stained sequentially with AlexaFluor647-conjugated secondary antibody (Invitrogen, 1:200) and DAPI (Sigma, 1:5000). For immunohistochemistry, BPLER tumor sections were prepared from paraffin-embedded tissues, deparaffinized and treated with 10% citrate buffer for 15 min.

BPLER cells [1] = experiment: Apoptosis (Annexin V/PI flow cytometry, caspase 3 and PARP cleavage immunoblot); type: cell-based, human; conditions: clinically relevant / low dose, 24 hours
Procedure: BPLER were used as control. […] The percentage of double-positive cells is indicated.
To further define factors underlying such properties of BPLER cells, we first determined the molecular mechanism by which proteasome inhibition affects the growth of these cells.
as §1, with “min. Staining was performed using a BIOGENEX IHC DAB kit (Biogenex) following the manufacturer's protocol. Primary antibodies were: CK14 (Millipore, mouse monoclonal, 1:100), CK5 (Millipore, mouse monoclonal, 1:100), HH3 (Cell Signaling, rabbit polyclonal, 1:100), ER (Abcam, mouse monoclonal, 1:100), Vimentin (Invitrogen, mouse monoclonal 1:100), Ki67 (Millipore, mouse monoclonal, 1:100).” for “min.”

BPLER cells [2] = experiment: Cell viability after drug treatment (CellTiterGlo / Trypan-Blue); type: cell-based, human
MB-468 tumors = experiment: MB-468 tumor-bearing mice; type: in vivo, mouse; conditions: intratumoral or intravenous regimen, 45 days
Procedure: Mean tumor volume in MB-468 tumor-bearing mice upon intratumoral infusion of bortezomib (0.8 mg/kg) or DMSO q3d.
Treatment was started once mice developed palpable tumors.

proteasome = proteasome (Homo sapiens, UniProt P28074); experiment: Proteasome activity in BPLER tumors after treatment (ProteasomeGlo assay); type: in vivo, mouse; conditions: after 18 hours
Procedure: (6A) Proteasome activity in protein lysates from BPLER tumors 18 hours after intratumoral (i.t.), intraperithoneal (i.p) or intravenous (i.v.) treatment with bortezomib at the indicated dose, as determined by ProteasomeGlo assay. Proteasome activity in BPLER treated with bortezomib in vitro is shown as control. (6B-6E) Mean tumor volume (6B, 6D) in BPLER tumor-bearing mice after treatment with bortezomib or DMSO at the indicated dose, schedule and route of administration. Median tumor weight was measured at time of sacrifice (6C, 6E). […] (6F) Immunoblot analysis of protein lysates from BPLER tumors 18 hours after 1 intravenous dose of bortezomib at 1.6 mg/kg bortezomib or DMSO, showing efficient Noxa induction and caspase-3 and PARP1 cleavage after bortezomib treatment. (6G) Mean tumor volume in MB-468 tumor-bearing mice after intravenous treatment with 1.6 mg/kg bortezomib weekly. (6H) Schematic diagram illustrating generation of mouse TNBC primary tumor fragments for bortezomib-based therapy studies. […] 4T1-E tumors are shown as control. (6I, 6J) Mean V22 tumor volume (6I) after weekly intravenous infusion of bortezomib (1.6 mg/kg) or DMSO. Treatment was started 2 days after implantation of primary tumor fragments. […] The top and the bottom of each box represent the 75th and 25th percentile of tumor weight, respectively. Upper and lower whiskers represent maximum and minimum tumor weight, respectively. The black horizontal band in each box corresponds to median tumor weight.
Our data thus far indicate that highly malignant epithelial TNBC cells are selectively susceptible to proteasome inhibition. Bortezomib is already in the clinic for treatment of multiple myeloma and other lymphomas. […] To assess therapeutic efficacy, we administered bortezomib every 3 days (0.8 mg/kg i.t.) or weekly (1.6 mg/kg i.v.) after BPLER tumors, implanted in the flank of Nu/J mice, became palpable. BPLER tumor outgrowth was assessed by tumor volume during the treatment period and by tumor weight at the time of sacrifice. […]

Chain of proteasome (P28074 60-263): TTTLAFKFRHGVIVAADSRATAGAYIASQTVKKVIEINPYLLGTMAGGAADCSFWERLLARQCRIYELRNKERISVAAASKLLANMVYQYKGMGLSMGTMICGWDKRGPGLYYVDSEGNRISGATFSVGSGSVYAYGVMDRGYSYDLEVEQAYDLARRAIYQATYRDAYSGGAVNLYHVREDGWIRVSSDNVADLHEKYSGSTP

## CC(C)C[C@H](NC(=O)[C@H](Cc1ccccc1)NC(=O)c1cnccn1)B(O)O [bortezomib]
Noxa, PARP1; BPE, MCF7 and T47D
  Noxa protein induction: only weakly
Noxa, PARP1; BPLER cells
  Noxa protein level: highly increased
Noxa, PARP1; HCC1143 and HCC1937 cells
  PARP cleavage: induced PARP cleavage
Noxa, PARP1; MCF7 or MDA-MB-436 cells
  PARP cleavage: not in MCF7 or MDA-MB-436 cells
Noxa, PARP1; all TNBC cell lines tested
  Noxa protein induction: strongly induced Noxa protein
BPLER cells [1]
  apoptosis (cleavage of caspase 3 and PARP): marked cleavage; also recorded: died of apoptosis
BPLER cells [2]; increasing doses, 24 hr
  sensitivity of BPLER relative to HMLER cells (viability): more sensitive
BPLER cells [2]; non-dividing (confluent) cells
  response of BPLER cells at confluence: became resistant
MB-468 tumors
  tumors smaller compared to control mice: at least 6 fold
proteasome; 1.6 mg/kg i.v.
  proteasome inhibition in the tumor: efficient proteasome activity inhibition
proteasome; 1 dose 0.8 mg/kg i.p. or i.v.
  proteasome inhibition in the tumor: less effective
proteasome; 1 dose 0.8 mg/kg i.t.
  proteasome inhibition in the tumor: Nearly complete proteasome inhibition
